Data as given in patent US20040248257A1, “SPEX compositions and methods of use” (The Scripps Research Institute, priority 2003, published 2004).

Assays:
hSPEX mRNA expression = conditions: human cells; 10 μM U0126; cultured DP thymocytes; one experiment
Description: (§1) The expression of mSPEX and hSPEX mRNAs is compared in cultured DP thymocytes in the presence or absence of stimulation with PMA and ionomycin and in the presence or absence of a MEK inhibitor (10 μM U0126).

mSPEX mRNA expression = conditions: murine cells; 10 μM U0126; cultured DP thymocytes; one experiment
Description: as §1

SMILES: N#CC(=C(/N)Sc1ccccc1N)/C(C#N)=C(\N)Sc1ccccc1N [U0126]
- inhibition of the increase of SPEX mRNA expression observed with PMA and ionomycin stimulation (hSPEX mRNA expression): approximately 70%
- inhibition of the increase of SPEX mRNA expression observed with PMA and ionomycin stimulation (mSPEX mRNA expression): approximately 70%
